Conversion factor data for four molecules are collected here from patent publication US20040198707A1, “Means and method for hormonal contraception” (priority 2001, published 2004).

The experiment in a line: conversion factors for progestogens: amount equivalent to a given amount of levonorgestrel. The following applies: estimate of the amount of progestogen equivalent to a given amount of levonorgestrel (levonorgestrel = 1). From the text: In order to determine for a specific biogenic estrogen or synthetic estrogen the amounts that are equivalent to a cited amount of ethinyl estradiol or 17beta-estradiol, the method described by Allen and Doisy may suitably be used (Allen A., Doisy E. A., “An ovarian hormone. Preliminary report on its localization, extraction and partial purification, and action in test animals. JAMA (1923), 81, 819-821). Similarly, in order to determine for a given progestogen the amount equivalent to cited amount of levonorgestrel the method originally described by McPhail can be used (Mc Phail M. K. “The assay of progestin” J Physiol (1934), 83, 145-156). A more recent description of this method can be found in an article written by Overbeek G. A., de Visser J. “A new substance with progestational activity”, Acta Endocrinol (1956), 22,318-329. It is noted that the aforementioned methods will provide useful indications about the anticipated estrogen potency or progestogen potency of a particular hormone. However, to accurately determine the equivalent amounts that are referred to above, it is advisable to additionally conduct in vivo studies in human females.
For guidance the table below provides the conversion factors for a number of progestogens that may suitably be used in the method of the invention. These conversion factors may be used to calculate, for each progestogen mentioned in the table, an estimate of the amount of said progestogen which is equivalent to a given amount of levonorgestrel.
Regarding `C#C[C@]1(OC(C)=O)CC[C@H]2[C@@H]3CCC4=CC(=NO)CC[C@@H]4[C@H]3CC[C@@]21CC` (mixture of isomers) [norgestimate], the Conversion factor was 1.7.

For `C#C[C@]1(O)CC[C@H]2[C@@H]3CCC4=CC(=O)CC[C@@H]4[C@H]3CC[C@@]21C` [norethisterone], the Conversion factor is 7.

With `C[C@]12CCC(=O)C=C1[C@@H]1C[C@@H]1[C@H]1[C@@H]3[C@@H]4C[C@@H]4[C@@]4(CCC(=O)O4)[C@@]3(C)CC[C@@H]12` [drospirenone], the Conversion factor is listed as 20.

In the case of `CC(=O)[C@H]1CC[C@H]2[C@@H]3C=CC4=CC(=O)CC[C@@]4(C)[C@@H]3CC[C@]12C` [dydrogesterone], the Conversion factor is 133.
